Experimental data taken from the supplement of paper PMC10307832.

Columns and labels:
Assay in all cases: relative viability (nuclei count vs DMSO), 5 days (fraction); higher = more cells survive
Crizotinib + Pictilisib = compound: C[C@@H](Oc1cc(-c2cnn(C3CCNCC3)c2)cnc1N)c1c(Cl)ccc(F)c1Cl [Crizotinib] + CS(=O)(=O)N1CCN(Cc2cc3nc(-c4cccc5[nH]ncc45)nc(N4CCOCC4)c3s2)CC1 [Pictilisib] (partner 1 µM)
Method in brief: (§1)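 The day after seeding in 1536-well plates, lung cancer cell lines were treated by pin tool with a single drug, or with a fixed anchor-drug dose together with five library-drug doses (not always all listed) in √10 steps. After 5 days, a combined fix-and-stain solution (final 0.05% Triton X-100, 1% formaldehyde, 1 ug/ml Hoechst) was added. Nuclei counted on 4× images gave relative viability as treated counts over vehicle counts, reported as the median of duplicate plates.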

Olaparib + Palbociclib = compound: O=C(c1cc(Cc2n[nH]c(=O)c3ccccc23)ccc1F)N1CCN(C(=O)C2CC2)CC1 [Olaparib] + CC(=O)c1c(C)c2cnc(Nc3ccc(N4CCNCC4)cn3)nc2n(C2CCCC2)c1=O [Palbociclib] (partner 0.5 µM)
Method in brief: as §1

Olaparib + Pictilisib = compound: O=C(c1cc(Cc2n[nH]c(=O)c3ccccc23)ccc1F)N1CCN(C(=O)C2CC2)CC1 [Olaparib] + CS(=O)(=O)N1CCN(Cc2cc3nc(-c4cccc5[nH]ncc45)nc(N4CCOCC4)c3s2)CC1 [Pictilisib] (partner 1 µM)
Method in brief: as §1

Olaparib + Tozasertib = compound: O=C(c1cc(Cc2n[nH]c(=O)c3ccccc23)ccc1F)N1CCN(C(=O)C2CC2)CC1 [Olaparib] + Cc1cc(Nc2cc(N3CCN(C)CC3)nc(Sc3ccc(NC(=O)C4CC4)cc3)n2)n[nH]1 [Tozasertib] (partner 0.1 µM)
Method in brief: as §1

Cell Line | relative viability (Crizotinib + Pictilisib; first compound 0.01 µM) | relative viability (Crizotinib + Pictilisib; first compound 0.03162 µM) | relative viability (Crizotinib + Pictilisib; first compound 0.1 µM) | relative viability (Crizotinib + Pictilisib; first compound 0.3162 µM) | relative viability (Crizotinib + Pictilisib; first compound 1 µM) | relative viability (Olaparib + Palbociclib; first compound 0.08 µM) | relative viability (Olaparib + Palbociclib; first compound 0.253 µM) | relative viability (Olaparib + Palbociclib; first compound 2.53 µM) | relative viability (Olaparib + Palbociclib; first compound 8 µM) | relative viability (Olaparib + Pictilisib; first compound 0.08 µM) | relative viability (Olaparib + Pictilisib; first compound 0.253 µM) | relative viability (Olaparib + Pictilisib; first compound 2.53 µM) | relative viability (Olaparib + Pictilisib; first compound 8 µM) | relative viability (Olaparib + Tozasertib; first compound 0.08 µM) | relative viability (Olaparib + Tozasertib; first compound 0.253 µM) | relative viability (Olaparib + Tozasertib; first compound 2.53 µM) | relative viability (Olaparib + Tozasertib; first compound 8 µM)
NCI-H1355 | 0.45 | 0.52 | 0.413 | 0.297 | 0.434 | 0.364 | 0.422 | 0.407 | 0.414 | 0.537 | 0.397 | 0.408 | 0.444 | 0.697 | 0.552 | 0.562 | 0.444
LCLC-103H | 0.547 | 0.65 | 0.669 | 0.583 | 0.576 | 0.524 | 0.455 | 0.513 | 0.494 | 0.682 | 0.557 | 0.53 | 0.52 | 0.499 | 0.47 | 0.528 | 0.41
NCI-H838 | 0.396 | 0.5 | 0.483 | 0.426 | 0.496 | 0.269 | 0.196 | 0.198 | 0.247 | 0.452 | 0.439 | 0.519 | 0.408 | 0.277 | 0.239 | 0.265 | 0.269
Calu-6 | 0.881 | 0.942 |  | 0.937 | 0.865 |  |  |  |  | 1.12 | 0.825 | 0.858 | 0.75 |  |  |  | 
BEN | 0.608 | 0.492 | 0.52 | 0.581 | 0.576 | 0.531 | 0.454 | 0.451 | 0.51 | 0.52 | 0.551 | 0.593 | 0.674 | 0.53 | 0.48 | 0.529 | 0.48
NCI-H1651 | 0.437 | 0.65 | 0.514 | 0.559 | 0.572 | 0.547 | 0.494 | 0.493 | 0.384 | 0.62 | 0.562 | 0.599 | 0.331 | 0.677 | 0.638 | 0.439 | 0.257
NCI-H2087 | 0.693 | 0.909 | 0.953 | 0.42 | 0.943 | 0.282 | 0.211 | 0.259 | 0.217 | 0.967 | 0.797 | 0.8 | 0.508 | 0.31 | 0.204 | 0.324 | 0.18
NCI-H520 | 0.261 | 0.333 | 0.303 | 0.319 | 0.251 | 0.239 | 0.207 | 0.179 | 0.152 | 0.318 | 0.315 | 0.278 | 0.236 | 0.39 | 0.389 | 0.467 | 0.411
NCI-H460 | 0.4 | 0.349 | 0.302 | 0.309 | 0.314 | 0.0979 | 0.0831 | 0.0723 | 0.0812 | 0.404 | 0.319 | 0.342 | 0.27 | 0.485 | 0.415 | 0.356 | 0.184
SK-MES-1 | 0.402 | 0.311 | 0.35 | 0.299 | 0.333 | 0.376 | 0.278 | 0.325 | 0.254 | 0.399 | 0.297 | 0.355 | 0.328 | 0.962 | 0.828 | 0.818 | 0.562
NCI-H661 | 0.379 | 0.349 | 0.383 | 0.378 | 0.36 | 0.384 | 0.383 | 0.389 | 0.362 | 0.431 | 0.399 | 0.439 | 0.386 | 0.346 | 0.355 | 0.34 | 0.343
NCI-H1993 | 0.682 | 0.823 | 0.761 | 0.667 | 0.748 | 0.49 | 0.653 | 0.83 | 0.735 | 0.827 | 0.839 | 0.719 | 0.869 | 0.546 | 0.537 | 0.557 | 0.521
NCI-H23 | 0.441 | 0.539 | 0.505 |  | 0.541 | 0.586 | 0.542 | 0.475 | 0.5 | 0.684 | 0.365 | 0.397 | 0.292 | 0.391 | 0.335 | 0.397 | 0.232
LCLC-97TM1 | 0.205 | 0.18 | 0.182 | 0.128 | 0.194 | 0.24 | 0.226 | 0.206 | 0.166 | 0.263 | 0.233 | 0.174 | 0.152 | 0.22 | 0.211 | 0.262 | 0.238
NCI-H1915 | 0.874 | 0.88 | 1.01 |  | 0.952 | 0.529 | 0.469 | 0.405 | 0.294 | 0.928 | 0.845 | 0.746 | 0.473 | 0.447 | 0.372 | 0.368 | 0.274
NCI-H2342 |  |  |  |  |  | 0.532 | 0.503 | 0.471 | 0.474 |  |  |  |  | 0.458 | 0.552 | 0.479 | 0.416
A549 | 0.558 | 0.439 | 0.521 | 0.543 | 0.53 |  |  |  |  | 0.636 | 0.398 | 0.456 | 0.376 |  |  |  | 
NCI-H596 | 0.348 | 0.378 | 0.354 | 0.414 | 0.367 |  |  |  |  | 0.417 | 0.381 | 0.45 | 0.394 | 0.962 | 0.707 | 0.813 | 0.617
EBC-1 | 0.378 | 0.215 | 0.159 | 0.202 | 0.198 |  |  |  |  | 0.392 | 0.345 | 0.368 | 0.304 |  |  |  | 
NCI-H1299 | 0.827 | 0.647 | 0.728 | 0.718 | 0.909 |  |  |  |  | 0.815 | 0.805 | 0.8 | 0.582 |  |  |  | 
NCI-H522 |  |  |  |  |  | 1.14 | 0.859 | 0.87 | 0.889 |  |  |  |  | 0.513 | 0.541 | 0.593 | 0.621
SW 900 |  |  |  |  |  | 0.606 | 0.492 | 0.595 | 0.476 |  |  |  |  | 0.516 | 0.395 | 0.536 | 0.483
NCI-H1563 | 0.527 | 0.594 | 0.628 | 0.555 | 0.652 |  |  |  |  | 0.614 | 0.645 | 0.695 | 0.635 |  |  |  | 
